The text below walks through data of paper PMC11674118, “New High-Affinity Peptide Ligands for Kv1.2 Channel: Selective Blockers and Fluorescent Probes” (Cells, 2024).

Assay [1] relates to Kv1.1 channel (K-Kv1.1). In words: Competitive displacement of A-HgTx from complexes with K-Kv1.1 on Neuro2a cells. The format is binding. The following applies: for Kd: displacement of A-HgTx (2 nM) from K-Kv1.1, Neuro2a cells (Figure S7), read-out: Kap, Kv1.1. An excerpt: Content of secondary structures in the studied peptides
Table S1. Content of secondary structures in the studied peptides (%) according to the CD analysis.
Peptide α-helix β-sheet Turns Random coil
Studies of affinity of Ce1 and Ce4 peptides to Kv1.1 and Kv1.3 channels Affinity of MgTx to Kv1.3 channel and peptides Ce1 and Ce4 to Kv1.1 and Kv1.3 channels was studied using previously developed analytical systems based on fluorescent ligand A-HgTx and Kv1.1 (Kv1.3) channels expressed in the membrane of Neuro2a cells in the form of the conjugates with mKate2 fluorescent protein (K-Kv1.1 and K-Kv1.3). The approach based on the competitive displacement of A-HgTx (2 nM) from the complex with the channel by the increasing concentration of the studied peptide (Figure S6) and the previously approved formalism (described in the Materials and Methods section) were used to evaluate Kap values for MgTx, Ce1 and Ce4 peptides. For the complexes of MgTx, Ce1 and Ce4 with Kv1.3 channel the Kap values are 1.4±0.7, 13±8 and 30±10 nM, respectively. For the complex of Ce1 with Kv1.1 channel, Kap is equal to 11±5 nM. Since Ce4 […]
(Figure S6b), Kap of the complex between Ce4 and Kv1.1 is estimated to be higher than 300 nM.
Figure S7. Competitive displacement of A-HgTx (2 nM) from the complexes with K-Kv1.1 (a, b) and K-Kv1.3 (c) by Ce1, Ce4 and MgTx peptides. (a,c) The dependences of the Rav/Rav0 parameter (see the Materials and Methods section) on the concentration C of the added competitor are shown. Data are averaged over three independent experiments and presented as mean±SEM. (b) Histogram showing the effect of 1 µM Ce4 on the binding of A-HgTx (2 nM) to K-Kv1.1.
Molecular modeling of Kv1.2 channel and its complexes with peptide blockers
(1 picture or pasted object on this page, not shown here)

Assay [2] deals with K-Kv1.2 channel. In words: Whole-cell patch-clamp of Neuro2a cells transfected with K-Kv1.2. The format is cell-based, human. Particulars: for block of current through K-Kv1.2: 10 nM peptide, whole-cell, representative traces (Figure 8d-g). How it is done: The patch-clamp method (whole-cell configuration) was used to measure membrane ion currents as described earlier. All the measurements were carried out at room temperature in a buffer containing (mM) 140 NaCl, 2.8 KCl, 2 MgCl2, 2 CaCl2, 10 HEPES, and 10 glucose (pH 7.4). Resistance of the micropipette tip was 6–8 MΩ. The pipette solution contained (mM) 140 KCl, 6 CaCl2, 2 MgCl2, 2 MgATP, 0.4 NaGTP, 10 HEPES, and 20 BAPTA/KOH (pH 7.3). The holding potential was −40 mV. The membrane potential increased from −70 to +70 mV with the 20 mV step each 20 s and returned to −40 mV. The duration of voltage pulses was 200 ms.
Measurements were carried out in 24–48 h after transfection of cells. HgTx1 (2 nM), HgTx-G (7.5 nM), Ce1 (10 nM), and Ce4 (10 nM) were dissolved in the extracellular buffer.

In assay [3] the test system is Kv1.2 channels. Particulars: mammalian cells with depolarized membranes; read-out: 50% inhibition of the Rb+ flux through Kv1.2; cited from earlier work. From the text: Kap of MgTx in our experiments is consistent with the last value.
Assay [4] deals with Kv1.1 channel (K-Kv1.1). The following applies: similar analytical system, read-out: Kap, Kv1.1; cited from earlier work. An excerpt: Table 2 Sequences of Ce1, Ce4, HgTx1, and MgTx peptides and dissociation constants (Kap, nM) of their complexes with Kv1.2, Kv1.1, and Kv1.3 channels. | column: Kap, nM

Molecules are shown by their SMILES. Like-named read-outs stand apart in the source and are kept apart here. Where a SMILES comes first, the peptide text is derived from it. Bridges are numbered along the chain shown (N, C = ends).

For `CC[C@H](C)[C@H](NC(=O)[C@@H](NC(=O)[C@@H](N)[C@@H](C)O)C(C)C)C(=O)N[C@@H](CC(N)=O)C(=O)N[C@H](C(=O)N[C@@H](CCCCN)C(=O)N[C@H]1CSSC[C@@H]2NC(=O)[C@H](CCCCN)NC(=O)[C@H](C)NC(=O)CNC(=O)[C@H](C)NC(=O)[C@H](Cc3c[nH]cn3)NC(=O)[C@@H]3CCCN3C(=O)CNC(=O)[C@H](Cc3ccc(O)cc3)NC(=O)[C@H](CC(C)C)NC(=O)[C@H](CC(=O)O)NC(=O)[C@H](CCCCN)NC(=O)[C@@H]3CSSC[C@@H](C(=O)N[C@@H](Cc4ccc(O)cc4)C(=O)N[C@@H](CC(N)=O)C(=O)N[C@@H](CC(N)=O)C(=O)O)NC(=O)[C@H](CCCCN)NC(=O)[C@H](CSSC[C@H](NC(=O)[C@H](CCC(N)=O)NC(=O)[C@H](CCCCN)NC(=O)[C@@H]4CCCN4C(=O)[C@H](CO)NC(=O)[C@H]([C@@H](C)O)NC1=O)C(=O)N[C@@H](CC(C)C)C(=O)N[C@@H](CCCCN)C(=O)N1CCC[C@H]1C(=O)N3)NC(=O)[C@H](CCCCN)NC(=O)CNC(=O)[C@H](CC(N)=O)NC(=O)[C@H](CCSC)NC2=O)C(C)C` [Ce1] (H-TVINVKCTSPKQCLKPCKDLYGPHAGAKCMNGKCKCYNN-OH; disulfide 7-29, 13-34, 17-36 (inferred); N-terminus and C-terminus assumed), in assay [1], the Kd came to 11 ± 5 nM. In addition, the “block of current through K-Kv1.2” value in assay [2] is “block current through the channel”.

Regarding `CC[C@H](C)[C@@H]1NC(=O)CNC(=O)[C@H](Cc2ccccc2)NC(=O)[C@H](CCC(N)=O)NC(=O)[C@H](C)NC(=O)[C@H](CCCCN)NC(=O)[C@@H]2CSSC[C@@H](C(=O)N[C@@H](Cc3ccc(O)cc3)C(=O)N3CCC[C@H]3C(=O)N[C@@H](Cc3c[nH]cn3)C(=O)O)NC(=O)[C@H](CCCCN)NC(=O)[C@@H]3CSSC[C@H](NC(=O)[C@H](CCC(N)=O)NC(=O)[C@H](CCCCN)NC(=O)[C@@H]4CCCN4C(=O)[C@H](CO)NC(=O)[C@H]([C@@H](C)O)NC(=O)[C@@H](NC(=O)[C@H](CCCCN)NC(=O)[C@@H](NC(=O)[C@H](CC(=O)O)NC(=O)[C@@H](NC(=O)[C@@H](NC(=O)[C@@H](N)[C@@H](C)O)C(C)C)[C@@H](C)CC)C(C)C)CSSC[C@H](NC(=O)[C@H](CCCCN)NC(=O)[C@H](C)NC(=O)CNC(=O)[C@H](C)NC(=O)[C@H](CCCNC(=N)N)NC1=O)C(=O)N[C@@H](CCSC)C(=O)N[C@@H](CC(N)=O)C(=O)NCC(=O)N[C@@H](CCCCN)C(=O)N3)C(=O)N[C@@H](CC(C)C)C(=O)N1CCC[C@H]1C(=O)N1CCC[C@H]1C(=O)N2` [HgTx1, hongotoxin 1] (H-TVIDVKCTSPKQCLPPCKAQFGIRAGAKCMNGKCKCYPH-OH; disulfide 7-29, 13-34, 17-36 (inferred); N-terminus and C-terminus assumed), the IC50 in assay [3] is 0.14 nM. In addition, the Kd in assay [4] was 0.03 ± 0.02 nM. Besides, the “block of K-Kv1.2 channel currents” value in assay [2] (2 nM HgTx1, whole-cell, room temperature, n = 10) amounted to 84 ± 2%.

As to `CC[C@H](C)[C@H](NC(=O)[C@H](CCCCN)NC(=O)[C@H](Cc1ccc(O)cc1)NC(=O)[C@@H]1CSSC[C@@H]2NC(=O)[C@@H]3CCCN3C(=O)[C@H](CC(C)C)NC(=O)[C@H](CC(C)C)NC(=O)[C@@H]3CSSC[C@H](NC(=O)[C@H](CCCCN)NC(=O)CNC(=O)[C@H](CC(N)=O)NC(=O)[C@H](CCSC)NC(=O)[C@H](CSSC[C@H](NC(=O)[C@H](CCCCN)NC(=O)[C@@H](NC(=O)[C@H](CC(N)=O)NC(=O)[C@@H](NC(=O)[C@@H](NC(=O)[C@@H](N)[C@@H](C)O)[C@@H](C)CC)[C@@H](C)CC)C(C)C)C(=O)N[C@@H]([C@@H](C)O)C(=O)N[C@@H](CO)C(=O)N4CCC[C@H]4C(=O)N[C@@H](CCCCN)C(=O)N[C@@H](CCC(N)=O)C(=O)N3)NC(=O)[C@H](CCCCN)NC(=O)[C@H](C)NC(=O)CNC(=O)[C@H](C)NC(=O)[C@H](Cc3c[nH]cn3)NC(=O)[C@H]([C@@H](C)CC)NC(=O)CNC(=O)[C@H](Cc3ccc(O)cc3)NC(=O)[C@H]([C@@H](C)CC)NC(=O)[C@H](CCC(=O)O)NC(=O)[C@H](CCCCN)NC2=O)C(=O)N[C@@H](CCCCN)C(=O)N1)C(=O)O` [Ce4] (H-TIINVKCTSPKQCLLPCKEIYGIHAGAKCMNGKCKCYKI-OH; disulfide 7-29, 13-34, 17-36 (inferred); N-terminus and C-terminus assumed), the Kd in assay [1] was greater than 300 nM. The “displacement of A-HgTx (2 nM) from the complex with Kv1.1 channel” value in assay [1] (till the 1 µM concentration of peptide) is reported as “does not displace A-HgTx”. Further, the “block of current through K-Kv1.2” value in assay [2] is recorded as “block current through the channel”.
